{
  "source": "patent US20120309821A1",
  "about": "“Use of epigallocatechin-3-gallate for immune regulation” (NATIONAL DEFENSE MEDICAL CENTER, priority 2011, published 2012)",
  "key": {"[1]": {"tested_on": "NZB/W F1 lupus-prone mice", "test": "Urine protein time course in NZB/W F1 lupus-prone mice", "type": "in vivo, mouse", "conditions": "120 mg/kg EGCG by gavage daily from 12 weeks of age; weeks 28-34; vs disease control mice", "procedure": "(§1) Female NZB/W F1 mice were purchased from the Animal Center of the National Taiwan University (Taipei, Taiwan, ROC) and, at 12 weeks of age, were divided into two groups, one of which was given normal saline and served as the disease control, while the other was given 120 mg/kg body weight of EGCG (Ryss Lab, Inc., CA, USA) (this dose is a slight modification of those used in previous in vivo studies) by gavage daily till sacrificed at 34-weeks-old. 8-Week-old NZB/W F1 female mice (prior to onset of autoantibody production) were used as normal controls. Urine samples were collected in metabolic cages every 2 weeks and urine protein levels were measured, and serum samples were used to measure serum levels of blood urea nitrogen (BUN) and creatinine (Cr) as described previously (Ka, S. M. et al. Decoy receptor 3 ameliorates an autoimmune crescentic glomerulonephritis model in mice. J Am Soc Nephrol 18:2473-2485; 2007). All animal experiments were performed upon the ethical approval of the Institutional Animal Care and Use Committee of the National Defense Medical Center, Taiwan and according to the ethical rules in the NIH Guide for the Care and Use of Laboratory Animals."}, "[2]": {"tested_on": "NZB/W F1 lupus-prone mice", "test": "Serum BUN and creatinine (renal function) in NZB/W F1 mice", "type": "in vivo, mouse", "conditions": "120 mg/kg by gavage daily; week 34; vs disease control mice", "procedure": "as §1"}, "[3]": {"tested_on": "NZB/W F1 lupus-prone mice", "test": "Kidney histopathological evaluation (H&E)", "type": "in vivo, mouse", "conditions": "120 mg/kg by gavage daily; week 34; H&E kidney sections; vs disease control mice", "procedure": "as §1, with “Animals. Formalin-fixed and paraffin-embedded renal sections were prepared for pathologic evaluation.” for “Animals.”"}, "[4]": {"tested_on": "Nrf2", "test": "Western blot of nuclear Nrf2 in kidney", "type": "in vivo, mouse", "conditions": "120 mg/kg by gavage daily, week 34, compared to disease controls", "procedure": "as §1, with “Animals. […] Antibodies to histone H3 (Cell Signaling) or β-actin (Santa Cruz) were used as internal controls for the nuclear and cytosolic target proteins, respectively.” for “Animals.”"}, "[5]": {"tested_on": "NAD(P)H oxidase subunit p47phox", "test": "Western blot of cytosolic p47phox in kidney", "type": "in vivo, mouse", "conditions": "120 mg/kg by gavage daily, week 34, increase seen in disease control", "procedure": "as §1, with “Animals. […] Antibodies to histone H3 (Cell Signaling) or β-actin (Santa Cruz) were used as internal controls for the nuclear and cytosolic target proteins, respectively.” for “Animals.”"}, "[6]": {"tested_on": "NF-κB p65", "test": "IHC of NF-κB p65 in kidney", "type": "in vivo, mouse", "conditions": "120 mg/kg by gavage daily; week 34; increase seen in disease control", "procedure": "as §1"}, "[7]": {"tested_on": "CD3+CD69+ cells (activated T cells)", "test": "T cell activation in splenocytes by flow cytometry", "type": "in vivo, mouse", "conditions": "120 mg/kg by gavage daily; week 34; increase seen in disease control", "procedure": "as §1, with “Animals. […]” for “Animals.”"}, "[8]": {"tested_on": "CD4+CD25+ Treg cells", "test": "Treg cell functional assay (3H-thymidine proliferation, cells from treated mice)", "type": "cell-based, mouse"}},
  "data": [
    {"substance": "Epigallocatechin-3-gallate [EGCG]", "values": [
      {"measurement": "urine protein levels", "setting": "[1]", "value": "markedly inhibited"},
      {"measurement": "serum levels of BUN", "setting": "[2]", "value": "significantly lower"},
      {"measurement": "serum levels of Cr", "setting": "[2]", "value": "significantly lower"},
      {"measurement": "severe renal lesions (glomerular proliferation, crescents, interstitial inflammation, fibrosis)", "setting": "[3]", "value": "greatly reduced"},
      {"measurement": "Nrf2 translocation into the nucleus", "setting": "[4]", "value": "markedly increased"},
      {"measurement": "levels of NAD(P)H oxidase subunit p47phox", "setting": "[5]", "value": "abolished"},
      {"measurement": "NF-κB p65 activity in the kidney (IHC, nuclear location)", "setting": "[6]", "value": "markedly inhibited"},
      {"measurement": "percentage of CD3+CD69+ cells (activated T cells) in CD3+ splenocytes", "setting": "[7]", "value": "not inhibited"},
      {"measurement": "proliferation of Treg cells incubated alone following anti-CD3 antibody stimulation", "setting": "[8]; Treg cells from EGCG-treated mice", "value": "did not proliferate"},
      {"measurement": "inhibition of responder T cell proliferation by added Treg cells (Treg cell activity)", "setting": "[8]; Treg cells from EGCG-treated mice vs Treg cells from disease control mice, titration", "value": "much greater"},
      {"measurement": "proliferation of responder T cells incubated alone following anti-CD3 antibody stimulation", "setting": "[8]; responder T cells from EGCG-treated vs disease control mice", "value": "proliferated, but to an equal extent"}
    ]}
  ]
}
